Assay [1] has as its system parental CHO cell line without any transfected receptors. In words: ^3H‐cAMP accumulation, parent CHO cells without transfected receptors. In kind it is cell-based, Chinese hamster. The conditions noted are these: parent CHO cells; 10μM; n=6. In general terms: Cyclic AMP is a second messenger, typically raised through Gs and lowered through Gi signalling.
For assay [2], the target named is T1, human α1A‐adrenoceptor (Homo sapiens, UniProt P35348).
T1 construct: expressed in transfected cells; host or cells: CHO-K1
T1 sequence (P35348 1-466): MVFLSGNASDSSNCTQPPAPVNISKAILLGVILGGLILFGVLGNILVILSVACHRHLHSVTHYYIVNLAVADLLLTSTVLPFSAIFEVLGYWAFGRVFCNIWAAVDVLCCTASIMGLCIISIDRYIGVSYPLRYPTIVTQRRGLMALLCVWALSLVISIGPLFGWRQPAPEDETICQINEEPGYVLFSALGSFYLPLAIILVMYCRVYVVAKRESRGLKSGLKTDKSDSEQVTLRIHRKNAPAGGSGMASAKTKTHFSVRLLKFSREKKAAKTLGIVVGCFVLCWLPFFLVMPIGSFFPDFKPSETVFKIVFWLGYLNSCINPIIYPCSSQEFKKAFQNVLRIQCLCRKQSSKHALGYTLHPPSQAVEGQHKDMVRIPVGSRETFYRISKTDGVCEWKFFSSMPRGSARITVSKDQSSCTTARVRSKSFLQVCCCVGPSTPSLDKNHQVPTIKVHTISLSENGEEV
In words: Intracellular free calcium mobilization, CHO‐α1A cells. In kind it is cell-based.

In assay [3] the test system is parental CHO cell line without any transfected receptors. In words: Forskolin‐stimulated cAMP accumulation, parent CHO cells without transfected receptors. It is filed as cell-based, Chinese hamster.
In assay [4] the target is T2, human α1D‐adrenoceptor (full length) (Homo sapiens, UniProt P25100).
T2 construct: human α1D‐adrenoceptor (full length) were used; expressed in transfected cells; host or cells: CHO-K1
T2 sequence (P25100 1-572): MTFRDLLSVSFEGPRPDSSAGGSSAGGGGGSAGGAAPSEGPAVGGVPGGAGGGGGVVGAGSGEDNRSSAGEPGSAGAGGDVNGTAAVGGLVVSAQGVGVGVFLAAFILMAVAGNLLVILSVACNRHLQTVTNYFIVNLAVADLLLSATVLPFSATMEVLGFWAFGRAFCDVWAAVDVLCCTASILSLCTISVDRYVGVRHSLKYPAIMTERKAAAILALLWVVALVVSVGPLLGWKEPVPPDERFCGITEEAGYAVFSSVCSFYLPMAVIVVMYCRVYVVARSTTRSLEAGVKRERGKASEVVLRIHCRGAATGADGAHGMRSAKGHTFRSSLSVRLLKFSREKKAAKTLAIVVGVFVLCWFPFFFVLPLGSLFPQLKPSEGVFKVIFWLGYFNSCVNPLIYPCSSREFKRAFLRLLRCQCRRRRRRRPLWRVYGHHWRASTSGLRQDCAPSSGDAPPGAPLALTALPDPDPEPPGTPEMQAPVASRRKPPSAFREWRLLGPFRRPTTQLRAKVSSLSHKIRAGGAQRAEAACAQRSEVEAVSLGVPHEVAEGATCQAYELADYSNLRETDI
Put plainly: ERK1/2‐phosphorylation (Surefire Alphascreen), CHO‐α1D cells. It is filed as cell-based. Background: In Alpha technology, singlet oxygen from a donor bead excites a nearby acceptor bead.

The target in assay [5] is T3, human α1B‐adrenoceptor (Homo sapiens, UniProt P35368).
T3 construct: expressed in transfected cells; host or cells: CHO-K1
T3 sequence (P35368 1-520): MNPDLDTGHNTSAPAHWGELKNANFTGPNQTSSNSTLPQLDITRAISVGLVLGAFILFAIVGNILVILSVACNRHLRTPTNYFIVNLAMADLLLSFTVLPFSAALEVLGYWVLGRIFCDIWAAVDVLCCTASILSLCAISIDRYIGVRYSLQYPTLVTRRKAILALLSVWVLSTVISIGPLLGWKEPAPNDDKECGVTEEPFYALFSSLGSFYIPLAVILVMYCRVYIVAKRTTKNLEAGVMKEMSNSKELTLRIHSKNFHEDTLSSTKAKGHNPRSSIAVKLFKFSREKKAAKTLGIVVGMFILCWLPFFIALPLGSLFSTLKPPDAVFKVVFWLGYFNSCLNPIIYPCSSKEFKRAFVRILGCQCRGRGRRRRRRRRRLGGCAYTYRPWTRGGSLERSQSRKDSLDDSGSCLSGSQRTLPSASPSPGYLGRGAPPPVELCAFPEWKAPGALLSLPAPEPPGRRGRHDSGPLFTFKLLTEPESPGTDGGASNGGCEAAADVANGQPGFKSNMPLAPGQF
In words: ^3H‐prazosin whole‐cell radioligand binding, CHO‐α1B cells.

Assay [6] deals with T1, human α1A‐adrenoceptor. Put plainly: ^3H‐cAMP accumulation, CHO‐α1A cells. It is filed as cell-based.
The target in assay [7] is T2, human α1D‐adrenoceptor (full length). Put plainly: ^3H‐cAMP accumulation in the presence of 10 μM forskolin, CHO‐α1D cells. In kind it is cell-based.
In assay [8] the target is T1, human α1A‐adrenoceptor. In words: ERK1/2‐phosphorylation (Surefire Alphascreen), CHO‐α1A cells. In kind it is cell-based.
For assay [9], the target named is T1, human α1A‐adrenoceptor. In words: ^3H‐prazosin whole‐cell radioligand binding, CHO‐α1A cells.
Assay [10] relates to parental CHO cell line without any transfected receptors. In words: Intracellular calcium mobilization, parent CHO cells without transfected receptors. It is filed as cell-based, Chinese hamster. The conditions noted are these: Cricetulus griseus; CHO cells without transfected receptors; response at maximum concentration used (c2), as % of ionomycin (10μM) response; mean ± s.e.m.; read-out: Intracellular calcium release % ionomycin. In general terms: Calcium assays in cells follow changes in intracellular calcium, usually with a dye or a luminescent sensor.

In assay [11] the target is T1, human α1A‐adrenoceptor. Put plainly: ^3H‐cAMP accumulation in the presence of 10 μM forskolin, CHO‐α1A cells. In kind it is cell-based.
Assay [12] has as its target T3, human α1B‐adrenoceptor. Put plainly: ^3H‐cAMP accumulation, CHO‐α1B cells. It is filed as cell-based. The conditions noted are these: CHO‐α1B cells.
Assay [13] relates to parental CHO cell line without any transfected receptors. Put plainly: ERK1/2‐phosphorylation, parent CHO cells without transfected receptors. In kind it is cell-based, Chinese hamster.
Assay [14] addresses T2, human α1D‐adrenoceptor (full length). In words: Intracellular free calcium mobilization, CHO‐α1D cells. In kind it is cell-based.
Assay [15] concerns the target T3, human α1B‐adrenoceptor. In words: Intracellular free calcium mobilization, CHO‐α1B cells. In kind it is cell-based.
The target of assay [16] is T2, human α1D‐adrenoceptor (full length). Put plainly: ^3H‐cAMP accumulation, CHO‐α1D cells. In kind it is cell-based. The conditions noted are these: cAMP accumulation without forskolin.
Assay [17] shares this target. In words: ^3H‐prazosin whole‐cell radioligand binding, CHO‐α1D cells.
The target of assay [18] is T3, human α1B‐adrenoceptor. In words: ^3H‐cAMP accumulation in the presence of 10 μM forskolin, CHO‐α1B cells. In kind it is cell-based.
In assay [19] the target is T3, human α1B‐adrenoceptor. In words: ERK1/2‐phosphorylation (Surefire Alphascreen), CHO‐α1B cells. In kind it is cell-based.

“Also recorded” adds a separate entry of the source. Read-outs that look alike come from different tables or passages of the source. Marks after values point to notes of the source that are not given here.

On to `C=C[C@@]1(C)CC(=O)[C@]2(O)[C@@]3(C)[C@@H](O)CCC(C)(C)[C@@H]3[C@H](O)[C@H](OC(C)=O)[C@@]2(C)O1` [forskolin], for which, in [1], the “cAMP accumulation response fold over basal” value was determined as 39.5 ± 3.2 fold over basal.

A word on the IC50: it is the concentration at which inhibition is half-maximal. A word on the Kd: it is a measure of binding affinity in units of concentration. Lower therefore signals higher affinity. As for `Cc1cc(C(C)(C)C)cc(C)c1CC1=NCCN1` [Xylometazoline], the EC50 on human α1A‐adrenoceptor [2] is 2.51 nM; on human α1A‐adrenoceptor [6] it was 126 nM; on human α1A‐adrenoceptor [8], 3.8 nM; on human α1A‐adrenoceptor [11], 30.2 nM; in assay [13] (Cricetulus griseus, CHO cells without transfected receptors, mean ± s.e.m., read-out: ERK1/2-phosphorylation Log EC50 (converted)), 89.1 nM. For the same molecule, the “Intracellular calcium release % ionomycin” value on human α1A‐adrenoceptor [2] amounted to 64.4 ± 2.7%. Moreover, on human α1A‐adrenoceptor [2], the “Log efficacy ratio KD /EC50” value came to 1.66. Also, the “% inhibition of forskolin-stimulated cAMP” value in [3] (CHO cells without transfected receptors, footnote *: % inhibition) was 21.0 ± 2.4%*. The IC50 in [3] (Cricetulus griseus, CHO cells without transfected receptors, footnote *: log IC50, read-out: log IC50, decrease in forskolin-stimulated cAMP accumulation (converted)) is 66.1 nM; in [7], 29.5 nM; on human α1B‐adrenoceptor [18], 9.12 nM. The “Effect on cAMP accumulation in the presence of forskolin, parent cells” value in assay [3] (untransfected cells) was “decrease in cAMP accumulation”. Further, the “ERK1/2‐phosphorylation % PDBu” value in assay [4] amounted to 70.8 ± 7.8%; on human α1A‐adrenoceptor [8], 98.8 ± 5.1%; at human α1B‐adrenoceptor [19] it was 66.2 ± 6.0%. For the same molecule, the Kd on human α1B‐adrenoceptor [5] is 6.92 µM; on human α1B‐adrenoceptor [5] (Log KD, ^3H‐prazosin binding), 6.92 µM; on human α1A‐adrenoceptor [9], 115 nM; in assay [17] it was 5.89 µM; in assay [17] (3H‐prazosin binding Log KD) it was 5.89 µM. Further, the “cAMP accumulation % forskolin” value on human α1A‐adrenoceptor [6] (CHO‐α1A cells, % of 10 µM forskolin response) is recorded as 32.4 ± 5.7%; on human α1B‐adrenoceptor [12] (% forskolin maximum response) it was “No response”. The “% inhibition of forskolin‐stimulated cAMP” value was “*26.5 ± 1.1%” in [7] (CHO‐α1D cells, decrease in forskolin‐stimulated cAMP accumulation (footnote b)) and 13.5 ± 1.8%a on human α1B‐adrenoceptor [18] (CHO‐α1B cells, footnote c). Besides, the “Effect on cAMP accumulation in the presence of forskolin, CHO‐α1D cells” value in [7] (not α1‐mediated) is “decrease in cAMP accumulation; also recorded: inhibitory cAMP response”. For the same molecule, at human α1A‐adrenoceptor [8], the “ERK1/2‐phosphorylation potency in CHO‐α1A cells relative to untransfected parent CHO cells” value is on record as above 10 fold. Also, at human α1A‐adrenoceptor [9], the “Affinity selectivity ratio α1A vs α1B” value is recorded as 60.3 fold. Further, the “Affinity selectivity ratio α1A vs α1D” value at human α1A‐adrenoceptor [9] was found to be 51.3 fold. For the same molecule, the Emax was determined as 15.8 ± 2.7% in [10] and 56.2 ± 5.9% in assay [13] (Cricetulus griseus, CHO cells without transfected receptors, maximal response as % of PDBu (10μM) response, mean ± s.e.m., read-out: ERK1/2-phosphorylation % PDBu). For the same molecule, the “cAMP accumulation (in presence of forskolin) Fold increase” value on human α1A‐adrenoceptor [11] (CHO‐α1A cells, fold increase of the forskolin response) is 2.00 ± 0.09 fold. In addition, the “cAMP accumulation Log EC50” value on human α1B‐adrenoceptor [12] is given as “No response”. Also, in [13] (untransfected cells), the “ERK1/2‐phosphorylation response in parent CHO cells” value is “stimulated ERK1/2‐phosphorylation responses”. The “Intracellular calcium release % Ionomycin at 100 µM” value in assay [14] is 18.6 ± 2.0%; at human α1B‐adrenoceptor [15], 13.6 ± 3.3%. The “cAMP Log EC50” value in assay [16] is reported as “No response”. Also, in assay [17], the “Affinity selectivity ratio α1B vs α1D” value was 1.2 fold. Moreover, the “Effect on cAMP accumulation in the presence of forskolin, CHO‐α1B cells” value at human α1B‐adrenoceptor [18] (not α1‐mediated) is “decrease in cAMP accumulation”.

(Values after paper PMC8343220, “The selectivity of α‐adrenoceptor agonists for the human α1A, α1B, and α1D‐adrenoceptors” (Pharmacology Research & Perspectives, 2021).)
